In PubChem BioAssay (NCI):
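All cell lines were grown in 96-well plates and treated with compound for 48 hours. The concentration for 50% growth inhibition is given as GI50. TGI marks complete inhibition of growth.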

Experiments:
Assay in all cases: NCI-60 cell line screen, 48 h
786-0 renal = system: 786-0 renal
A549 NSCLC = system: A549 NSCLC
ACHN renal = system: ACHN renal
CAKI-1 renal = system: CAKI-1 renal
CCRF-CEM leukemia = system: CCRF-CEM leukemia
DMS 114 small cell lung = system: DMS 114 small cell lung
DU-145 prostate = system: DU-145 prostate
EKVX NSCLC = system: EKVX NSCLC
HCT-116 colon = system: HCT-116 colon
HCT-15 colon = system: HCT-15 colon
HL-60(TB) leukemia = system: HL-60(TB) leukemia
HOP-62 NSCLC = system: HOP-62 NSCLC
IGROV1 ovarian = system: IGROV1 ovarian
K-562 leukemia = system: K-562 leukemia
M14 melanoma = system: M14 melanoma
MALME-3M melanoma = system: MALME-3M melanoma
MCF7 breast = system: MCF7 breast
MDA-MB-231 breast = system: MDA-MB-231 breast
MDA-MB-435 = system: MDA-MB-435
MDA-N = system: MDA-N
MOLT-4 leukemia = system: MOLT-4 leukemia
NCI/ADR-RES ovarian = system: NCI/ADR-RES ovarian
OVCAR-3 ovarian = system: OVCAR-3 ovarian
OVCAR-4 ovarian = system: OVCAR-4 ovarian
OVCAR-5 ovarian = system: OVCAR-5 ovarian
PC-3 prostate = system: PC-3 prostate
RPMI-8226 leukemia = system: RPMI-8226 leukemia
SF-539 CNS = system: SF-539 CNS
SK-MEL-2 melanoma = system: SK-MEL-2 melanoma
SK-MEL-28 melanoma = system: SK-MEL-28 melanoma
SK-MEL-5 melanoma = system: SK-MEL-5 melanoma
SNB-19 CNS = system: SNB-19 CNS
SNB-75 CNS = system: SNB-75 CNS
SW-620 colon = system: SW-620 colon
T-47D breast = system: T-47D breast
UO-31 renal = system: UO-31 renal
A498 renal = system: A498 renal
COLO 205 colon = system: COLO 205 colon
DLD-1 colon = system: DLD-1 colon
DMS 273 small cell lung = system: DMS 273 small cell lung
HCC-2998 colon = system: HCC-2998 colon
HOP-92 NSCLC = system: HOP-92 NSCLC
HT29 colon = system: HT29 colon
KM12 colon = system: KM12 colon
KM20L2 colon = system: KM20L2 colon
LXFL 529 NSCLC = system: LXFL 529 NSCLC
NCI-H23 lung = system: NCI-H23 lung
NCI-H460 lung = system: NCI-H460 lung
NCI-H522 lung = system: NCI-H522 lung
OVCAR-8 ovarian = system: OVCAR-8 ovarian
SF-268 CNS = system: SF-268 CNS
SF-295 CNS = system: SF-295 CNS
SK-OV-3 ovarian = system: SK-OV-3 ovarian
SN12C renal = system: SN12C renal
SNB-78 CNS = system: SNB-78 CNS
SR leukemia = system: SR leukemia
TK-10 renal = system: TK-10 renal
U251 CNS = system: U251 CNS
UACC-257 melanoma = system: UACC-257 melanoma
UACC-62 melanoma = system: UACC-62 melanoma
LOX IMVI melanoma = system: LOX IMVI melanoma
M19-MEL melanoma = system: M19-MEL melanoma
NCI-H226 lung = system: NCI-H226 lung

`CCSC(=O)N1c2ccc(OC)cc2C=CC1C#N` (stereo not drawn) was tested, and the TGI (786-0 renal) was 121 µM, the TGI (A549 NSCLC) was > 1000 µM and the TGI (ACHN renal) was > 1000 µM. For the same molecule, the TGI (CAKI-1 renal) was 737 µM, the TGI (CCRF-CEM leukemia) was > 1000 µM and the TGI (DMS 114 small cell lung) was 1.02 µM. For the same molecule, the TGI (DU-145 prostate) was 0.0105 µM, the TGI (EKVX NSCLC) was > 1000 µM and the TGI (HCT-116 colon) was 0.0382 µM. It also gave a GI50 (HCT-15 colon) of 0.00168 µM, a TGI (HL-60(TB) leukemia) of 0.00522 µM and a TGI (HOP-62 NSCLC) of 0.0467 µM. The TGI (IGROV1 ovarian) was > 1000 µM, the TGI (K-562 leukemia) was > 1000 µM and the TGI (M14 melanoma) was > 1000 µM. For the same molecule, the TGI (MALME-3M melanoma) was > 1000 µM, the GI50 (MCF7 breast) was 0.000805 µM and the TGI (MCF7 breast) was > 1000 µM. The GI50 (MDA-MB-231 breast) was 0.529 µM, the GI50 (MDA-MB-435) was 0.000369 µM and the TGI (MDA-MB-435) was 0.00553 µM. The GI50 (MDA-N) was 0.0003 µM, the TGI (MDA-N) was 0.00138 µM and the TGI (MOLT-4 leukemia) was > 1000 µM. The GI50 (NCI/ADR-RES ovarian) was 0.00254 µM, the TGI (OVCAR-3 ovarian) was 0.0062 µM and the TGI (OVCAR-4 ovarian) was > 1000 µM. For the same molecule, the GI50 (OVCAR-5 ovarian) was 0.596 µM, the TGI (OVCAR-5 ovarian) was > 1000 µM and the GI50 (PC-3 prostate) was 0.214 µM. For the same molecule, the TGI (PC-3 prostate) was > 1000 µM, the TGI (RPMI-8226 leukemia) was 689 µM and the TGI (SF-539 CNS) was 0.00582 µM. For the same molecule, the TGI (SK-MEL-2 melanoma) was 7.43 µM, the TGI (SK-MEL-28 melanoma) was > 1000 µM and the TGI (SK-MEL-5 melanoma) was 0.224 µM. The GI50 (SNB-19 CNS) was 6.08 µM, the TGI (SNB-19 CNS) was > 1000 µM and the GI50 (SNB-75 CNS) was 0.231 µM. The TGI (SNB-75 CNS) was > 1000 µM, the TGI (SW-620 colon) was 199 µM and the TGI (T-47D breast) was 734 µM. For the same molecule, the TGI (UO-31 renal) was > 1000 µM.
`CC12CCC(=O)N1c1cnccc1N2` (stereo not drawn) was tested, and the TGI (A498 renal) was > 100 µM, the TGI (A549 NSCLC) was > 100 µM and the TGI (ACHN renal) was > 100 µM. For the same molecule, the TGI (CAKI-1 renal) was > 100 µM, the TGI (CCRF-CEM leukemia) was > 100 µM and the TGI (COLO 205 colon) was > 100 µM. The TGI (DLD-1 colon) was > 100 µM, the TGI (DMS 114 small cell lung) was > 100 µM and the TGI (DMS 273 small cell lung) was > 100 µM. The TGI (EKVX NSCLC) was > 100 µM, the TGI (HCC-2998 colon) was > 100 µM and the TGI (HCT-116 colon) was > 100 µM. For the same molecule, the TGI (HCT-15 colon) was > 100 µM, the TGI (HL-60(TB) leukemia) was > 100 µM and the TGI (HOP-62 NSCLC) was > 100 µM. For the same molecule, the TGI (HOP-92 NSCLC) was > 100 µM, the TGI (HT29 colon) was > 100 µM and the TGI (IGROV1 ovarian) was > 100 µM. The TGI (K-562 leukemia) was > 100 µM, the TGI (KM12 colon) was > 100 µM and the TGI (KM20L2 colon) was > 100 µM. The TGI (LXFL 529 NSCLC) was > 100 µM, the TGI (M14 melanoma) was > 100 µM and the TGI (MALME-3M melanoma) was > 100 µM. For the same molecule, the TGI (MOLT-4 leukemia) was > 100 µM, the TGI (NCI-H23 lung) was > 100 µM and the TGI (NCI-H460 lung) was > 100 µM. For the same molecule, the TGI (NCI-H522 lung) was > 100 µM, the TGI (OVCAR-3 ovarian) was > 100 µM and the TGI (OVCAR-4 ovarian) was > 100 µM. The TGI (OVCAR-5 ovarian) was > 100 µM, the TGI (OVCAR-8 ovarian) was > 100 µM and the TGI (RPMI-8226 leukemia) was > 100 µM. The TGI (SF-268 CNS) was > 100 µM, the TGI (SF-295 CNS) was > 100 µM and the TGI (SF-539 CNS) was > 100 µM. The TGI (SK-MEL-2 melanoma) was > 100 µM, the TGI (SK-MEL-28 melanoma) was > 100 µM and the TGI (SK-MEL-5 melanoma) was > 100 µM. For the same molecule, the TGI (SK-OV-3 ovarian) was > 100 µM, the TGI (SN12C renal) was > 100 µM and the TGI (SNB-19 CNS) was > 100 µM. The TGI (SNB-75 CNS) was > 100 µM, the TGI (SNB-78 CNS) was > 100 µM and the TGI (SR leukemia) was > 100 µM. For the same molecule, the TGI (SW-620 colon) was > 100 µM, the TGI (TK-10 renal) was > 100 µM and the TGI (U251 CNS) was > 100 µM. The TGI (UACC-257 melanoma) was > 100 µM, the TGI (UACC-62 melanoma) was > 100 µM and the TGI (UO-31 renal) was > 100 µM.
`CC(C)(c1cn(Cc2ccccc2)c2ccccc12)c1cn(Cc2ccccc2)c2ccccc12` was tested, and the TGI (786-0 renal) was > 100 µM, the TGI (A549 NSCLC) was > 100 µM and the TGI (ACHN renal) was > 100 µM. For the same molecule, the TGI (CAKI-1 renal) was > 100 µM, the TGI (CCRF-CEM leukemia) was > 100 µM and the TGI (COLO 205 colon) was > 100 µM. The TGI (DLD-1 colon) was > 100 µM, the TGI (DMS 114 small cell lung) was > 100 µM and the TGI (EKVX NSCLC) was > 100 µM. The TGI (HCT-116 colon) was > 100 µM, the TGI (HCT-15 colon) was > 100 µM and the TGI (HL-60(TB) leukemia) was > 100 µM. The TGI (HOP-62 NSCLC) was > 100 µM, the TGI (HOP-92 NSCLC) was > 100 µM and the TGI (HT29 colon) was > 100 µM. For the same molecule, the TGI (IGROV1 ovarian) was > 100 µM, the TGI (K-562 leukemia) was > 100 µM and the TGI (KM12 colon) was > 100 µM. The TGI (LOX IMVI melanoma) was > 100 µM, the TGI (LXFL 529 NSCLC) was > 100 µM and the TGI (M14 melanoma) was > 100 µM. The TGI (M19-MEL melanoma) was > 100 µM, the TGI (MOLT-4 leukemia) was > 100 µM and the TGI (NCI-H226 lung) was > 100 µM. For the same molecule, the TGI (NCI-H23 lung) was > 100 µM, the TGI (NCI-H460 lung) was > 100 µM and the TGI (NCI-H522 lung) was > 100 µM. For the same molecule, the TGI (OVCAR-3 ovarian) was > 100 µM, the TGI (OVCAR-4 ovarian) was > 100 µM and the TGI (OVCAR-5 ovarian) was > 100 µM. For the same molecule, the TGI (OVCAR-8 ovarian) was > 100 µM, the TGI (RPMI-8226 leukemia) was > 100 µM and the TGI (SF-268 CNS) was > 100 µM. For the same molecule, the TGI (SF-295 CNS) was > 100 µM, the TGI (SF-539 CNS) was > 100 µM and the TGI (SK-MEL-5 melanoma) was > 100 µM. For the same molecule, the TGI (SK-OV-3 ovarian) was > 100 µM, the TGI (SN12C renal) was 5.07 µM and the TGI (SNB-75 CNS) was 99.6 µM. For the same molecule, the TGI (SNB-78 CNS) was > 100 µM, the TGI (SR leukemia) was > 100 µM and the TGI (SW-620 colon) was > 100 µM. The TGI (U251 CNS) was > 100 µM and the TGI (UACC-62 melanoma) was > 100 µM.
